# Measurements: PMC2996585 (Journal of medicinal chemistry, 2010)
# Entries after “also recorded” stand apart in the source; their conditions may differ. Read-outs that look alike come from different tables or passages of the source. Bridges are numbered along the chain shown (N, C = ends). Where no end group is shown, it is not given here.
# Target: T1, ENaC (Homo sapiens, UniProt P37088)
# T1 sequence (P37088 1-669): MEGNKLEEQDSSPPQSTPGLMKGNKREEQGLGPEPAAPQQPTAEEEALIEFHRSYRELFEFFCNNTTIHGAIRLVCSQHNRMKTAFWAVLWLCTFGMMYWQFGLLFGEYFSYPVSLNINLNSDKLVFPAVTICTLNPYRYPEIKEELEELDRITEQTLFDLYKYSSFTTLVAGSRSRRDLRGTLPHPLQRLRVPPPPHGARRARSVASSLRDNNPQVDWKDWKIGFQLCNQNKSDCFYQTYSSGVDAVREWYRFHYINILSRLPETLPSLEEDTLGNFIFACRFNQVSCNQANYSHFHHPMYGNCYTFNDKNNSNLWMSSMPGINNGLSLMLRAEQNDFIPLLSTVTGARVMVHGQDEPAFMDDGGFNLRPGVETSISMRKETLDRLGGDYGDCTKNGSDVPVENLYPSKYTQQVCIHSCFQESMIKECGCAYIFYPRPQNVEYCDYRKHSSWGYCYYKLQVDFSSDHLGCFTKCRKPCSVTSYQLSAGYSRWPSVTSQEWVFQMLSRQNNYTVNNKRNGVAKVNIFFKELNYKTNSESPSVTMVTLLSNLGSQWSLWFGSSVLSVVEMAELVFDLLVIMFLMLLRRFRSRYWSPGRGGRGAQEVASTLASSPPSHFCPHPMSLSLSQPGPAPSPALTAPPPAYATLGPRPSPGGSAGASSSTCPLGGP
# T1 sequence (P51168 1-640 partner): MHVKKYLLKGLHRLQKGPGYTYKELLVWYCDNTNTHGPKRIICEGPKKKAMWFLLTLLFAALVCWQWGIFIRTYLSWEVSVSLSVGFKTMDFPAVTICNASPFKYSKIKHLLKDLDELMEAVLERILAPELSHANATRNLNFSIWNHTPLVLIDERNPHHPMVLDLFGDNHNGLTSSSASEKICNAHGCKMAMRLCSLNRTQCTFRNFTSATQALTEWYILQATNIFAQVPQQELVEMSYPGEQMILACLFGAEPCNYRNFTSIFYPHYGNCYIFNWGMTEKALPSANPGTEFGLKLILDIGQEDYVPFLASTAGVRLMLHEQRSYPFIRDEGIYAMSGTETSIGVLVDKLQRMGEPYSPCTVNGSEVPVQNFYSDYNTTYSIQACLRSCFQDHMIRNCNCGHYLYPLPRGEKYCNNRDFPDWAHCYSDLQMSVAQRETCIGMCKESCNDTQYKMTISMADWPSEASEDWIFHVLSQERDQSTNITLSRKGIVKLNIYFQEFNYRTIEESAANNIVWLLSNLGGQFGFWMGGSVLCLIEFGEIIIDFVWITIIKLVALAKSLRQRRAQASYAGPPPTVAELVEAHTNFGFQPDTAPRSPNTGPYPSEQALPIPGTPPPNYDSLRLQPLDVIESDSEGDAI
# T1 sequence (P51170 1-649 partner): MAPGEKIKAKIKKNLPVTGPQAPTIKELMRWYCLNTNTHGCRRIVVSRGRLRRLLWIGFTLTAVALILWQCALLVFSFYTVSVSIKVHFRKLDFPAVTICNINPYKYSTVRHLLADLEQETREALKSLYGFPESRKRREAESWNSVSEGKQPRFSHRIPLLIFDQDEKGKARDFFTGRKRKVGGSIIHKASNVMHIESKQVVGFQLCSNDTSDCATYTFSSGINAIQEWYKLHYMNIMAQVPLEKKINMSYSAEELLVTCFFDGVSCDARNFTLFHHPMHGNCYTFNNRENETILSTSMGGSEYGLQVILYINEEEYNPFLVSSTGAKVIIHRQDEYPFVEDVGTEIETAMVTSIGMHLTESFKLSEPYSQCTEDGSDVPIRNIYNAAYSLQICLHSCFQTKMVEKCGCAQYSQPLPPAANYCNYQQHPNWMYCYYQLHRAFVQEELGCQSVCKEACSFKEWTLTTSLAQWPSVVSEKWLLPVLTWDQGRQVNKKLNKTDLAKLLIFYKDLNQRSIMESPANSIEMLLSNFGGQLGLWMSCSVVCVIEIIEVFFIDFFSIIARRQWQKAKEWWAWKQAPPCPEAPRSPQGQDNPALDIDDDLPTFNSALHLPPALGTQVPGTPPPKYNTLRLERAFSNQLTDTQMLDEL
# Format: cell-based
# Settings: A549 cells, whole-cell patch clamp; for ENaC-activating effect / effect on sodium current (in words): no concentration stated at the place
Substance,Effect on ENaC (concentrations up to 240 nM),Effect on ENaC (concentrations up to 480 nM),ENaC-activating effect / effect on sodium current (in words),ENaC-activating effect / effect on sodium current (in words) (listed as 22)
Cyclo(7-aminoheptanoic acid-GQRETPEGAEAKPWY) (head to tail) [compound 10],no effect,no effect,,
Cyclo(5-aminopentanoic acid-GQRETPEGAEAKPWYG) (head to tail) [compound 6],no effect,no effect,did not affect ENaC; also recorded: inactive,
"CGQREAPAGAAAKPWYC (disulfide 1-17) [compound 12, reference compound]",,no effect,ineffective; also recorded: no effect,
CQRETPEGAEAKGGC (disulfide 1-15) [compound 2],,no effect,ineffective; also recorded: inactive,
Cyclo(4-aminobutanoic acid-GQRETPEGAEAKPWYG) (head to tail) [compound 7],no effect,no effect,did not affect ENaC; also recorded: inactive,
Cyclo(6-aminohexanoic acid-GQRETPEGAEAKPWYG) (head to tail) [compound 11],no effect,no effect,inactive,did not affect ENaC
